Results on 6 compounds are retold here after article PMC12435400, “Thymidine Phosphorylase Inhibitory Potential and Molecular Docking Studies of Secondary Metabolites Isolated From Fernandoa adenophylla (Wall. ex G. Don) Steenis” (Chemistry & Biodiversity, 2025).

Assay [1] concerns the target T1, thymidine phosphorylase (EcTP) (Escherichia coli, UniProt P07650).
T1 construct: purchased
Briefly: biochemical. The method, then: Mechanism‐based studies were carried out on the selected compounds, that is, 1, 2, and 5.
(§1) In this study, we utilized commercially available recombinant EcTP enzyme as a model for TP inhibition assessment due to its structural similarities with mammalian TP enzymes. Spectrophotometric TP inhibition assays were conducted by incubating 0.058 U of EcTP enzyme with 500 µM of test compounds at 30°C for 10 min. Subsequently, 1.5 mM of thymidine substrate was added, and absorbance changes were monitored for 10 min at 290 nm using a microplate reader. […] Mechanistic studies involved incubating the TP enzyme with varying inhibitor concentrations and substrate concentrations ranging from 0.1875 to 1.5 µM. Enzyme activity was assessed by measuring absorbance changes for an additional 10 min. Triplicate experiments were conducted for mechanistic investigations to ensure the results' robustness.
Chemical reactions were examined using kinetic studies to determine their rates, mode of inhibition, and the variables influencing these characteristics. The kind and mechanism of inhibition of derivatives are ascertained here. Test compounds (0.5–500 µM) were incubated with TP (0.058 U/200 µL) for 10 min at 30°C in mechanistic studies. The addition of various thymidine concentrations (varying from 0.1875 to 1.5 µM) then started the process. Thymidine cleavage was tracked at 290 nm for ten min straight using an ELISA plate reader (SpectraMax 384; Molecular Devices, San Jose, CA, USA).

Assay [2] deals with T2, recombinant EcTP enzyme (thymidine phosphorylase) (Escherichia coli, UniProt P07650).
T2 construct: purchased
T2 sequence (P07650 whole entry): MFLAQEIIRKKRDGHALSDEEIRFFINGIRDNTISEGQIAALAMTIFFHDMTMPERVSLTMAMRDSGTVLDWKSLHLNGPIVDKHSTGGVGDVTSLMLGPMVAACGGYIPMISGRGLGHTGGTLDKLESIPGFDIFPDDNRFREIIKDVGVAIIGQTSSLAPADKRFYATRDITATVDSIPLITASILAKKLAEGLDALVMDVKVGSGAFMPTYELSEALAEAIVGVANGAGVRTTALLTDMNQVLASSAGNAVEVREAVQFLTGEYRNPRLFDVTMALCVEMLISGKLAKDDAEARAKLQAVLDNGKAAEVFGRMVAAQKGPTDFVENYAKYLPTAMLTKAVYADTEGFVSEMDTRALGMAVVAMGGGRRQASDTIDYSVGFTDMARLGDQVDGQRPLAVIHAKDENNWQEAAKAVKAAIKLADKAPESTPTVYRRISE
The experiment in a line: biochemical. The method, then: as §1

Setting [3] is: dissociation constant from secondary replot of Lineweaver-Burk and Dixon plots, unit printed in text b13 only, read-out: Ki ± SEM.
Setting [4] is: thymidine as variable substrate.
Setting [5] is: 500 µM test compound, 0.058 U EcTP, 1.5 mM thymidine, 30°C, read-out: % Inhibition.
[6] abbreviates: EcTP, thymidine substrate, absorbance at 290 nm, triplicate, read-out: IC50 ± SEM.

Like-named read-outs stand apart in the source and are kept apart here.

T1 sequence (P07650 whole entry): as above

On to `CC1(C)CCC2=C(O1)C(=O)c1ccccc1C2=O` [Alpha‐lapachone (2), Alpha‐lapachone], for which, in assay [1] (setting [3]), the Ki turned out to be 4.9 ± 0.008 µM. Further, in assay [1] (setting [4]), the “Type of Inhibitor” value is recorded as “Non‐competitive”. The inhibition at 500 µM in assay [2] (setting [5]) stood at 88.3%. Moreover, in assay [2] (setting [6]), the IC50 was 3.6 ± 0.9 µM.
Regarding `COC(=O)C1(O)c2ccccc2C(=O)C1(O)CC=C(C)C` (stereo not drawn) [Indanone derivative (5), Methyl‐1,2‐dihydroxy‐2‐(3‐methylbut‐2‐en‐1‐yl)‐3‐oxo‐2,3‐dihydro‐1H‐indene‐1carboxylate], the Ki in assay [1] turned out to be 7.1 ± 0.009 µM. Also, the “Type of Inhibitor” value in assay [1] (setting [4]) is reported as “Non‐competitive”. Besides, in assay [2], the IC50 was 1.8 ± 0.5 µM and the inhibition at 500 µM was found to be 91.3%.
`CC1(C)C=CC2=C(O1)C(=O)c1ccccc1C2=O` [Dehydro‐α‐lapachone (4), Dehydro‐α‐lapachone]: the inhibition at 500 µM in assay [2] (setting [5]) stood at 82.6%. Also, the IC50 in assay [2] (setting [6]) came out at 17.2 ± 1 µM.
Consider `CC(C)=C(C)[C@H]1C[C@]2(C)OC3=C(C(=O)c4ccccc4C3=O)[C@H]3[C@@H]2[C@@]12C(=O)c1ccccc1[C@@]3(O)C2=O` [Peshawaraquinone (3), Peshawaraquinone], for which the inhibition at 500 µM in assay [2] (setting [5]) turned out to be 87.1%. Also, in assay [2] (setting [6]), the IC50 was determined as 4.9 ± 0.8 µM.
`O=c1[nH]c(=O)c2cc[nH]c2[nH]1` [7‐Deazaxanthine, reference compound]: the “Type of Inhibitor” value in assay [1] was “Non‐competitive”. For the same compound, in assay [2], the inhibition at 500 µM worked out at 80.6%.
For `CC(C)=CCC1=C(O)C(=O)c2ccccc2C1=O` [Lapachol (1), Lapachol], the Ki in assay [1] (setting [3]) is 4.6 ± 0.006 µM. The “Type of Inhibitor” value in assay [1] (setting [4]) is “Non‐competitive”. Moreover, in assay [2] (setting [5]), the inhibition at 500 µM is 86.2%. In addition, the IC50 in assay [2] (setting [6]) is 2.3 ± 0.1 µM.
